The source of these data is ChEMBL document CHEMBL1201862, “PubChem BioAssay data set” (2004).

Holding throughout (test): DTP human tumour cell line panel, 48 h
Test [1] concerns RXF 393.
The test system of test [2] is OVCAR-4.
For test [3], the system named is SK-MEL-28.
The test system of test [4] is LOX IMVI.
For test [5], the system named is SNB-75.
Test [6] has as its system SF-295.
Test [7] deals with SF-268.
Test [8] concerns UACC-257.
The test system of test [9] is NCI-H226.
Test [10] has as its system EKVX.
Test [11] concerns MOLT-4.
Test [12] concerns 786-0.
The subject of test [13] is M14.
In test [14] the test system is CAKI-1.
Test [15] deals with HOP-92.
Test [16] deals with COLO 205.
Test [17] deals with DU-145.

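A five-concentration, 48-hour dose response in 96-well plates underlies each endpoint, interpolated linearly between surrounding concentrations. The concentration for 50% growth inhibition is given as GI50.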 The source made the active and inactive calls. Rule as the data show it: active = GI50 up to about 1.1 µM and inactive = higher.

In the case of `C#C[C@@H](CCCC)OC(=O)N[C@H](C)c1ccccc1`, the GI50 was 2.36 µM (inactive) in [1]; 39.2 µM (inactive) in [2]; > 100 µM (inactive) in [3]; 33.2 µM (inactive) in test [4]; 33.3 µM (inactive) in [5]; 77.1 µM (inactive) in [6]. For the same compound, the GI50 in test [7] is 2.17 µM (inactive); in test [8], 44.8 µM (inactive); in [9] it was 22.5 µM (inactive); in test [10], 60.7 µM (inactive); in test [11], 27.3 µM (inactive); in test [12], 59.6 µM (inactive). The GI50 was 11.5 µM (inactive) in test [13], 42.9 µM (inactive) in test [14], 1.83 µM (inactive) in [15] and 2.45 µM (inactive) in test [16].
For the compound `C/C(=N\NC(=S)N1CC2CCC(CC2)C1)c1nccs1`, the GI50 in test [1] was 0.336 µM (active); in [2], 0.261 µM (active); in [3], 1.1 µM (active); in test [4], 0.271 µM (active); in [5], 3.33 µM (inactive); in test [17], 0.255 µM (active). Also, the GI50 in test [6] is 0.296 µM (active); in test [7] it was 0.294 µM (active); in test [8], 0.113 µM (active); in test [9], 0.479 µM (active); in test [10], 0.0789 µM (active); in test [11], < 0.0196 µM (active). Besides, the concentration for 50% growth inhibition (GI50) was 0.25 µM (active) in [12]; 0.249 µM (active) in test [13]; 0.634 µM (active) in test [14]; 0.646 µM (active) in test [15]; 0.0145 µM (active) in test [16].
For the compound `COc1c(C)n(CCO)ccc1=O`, the GI50 in [1], in [2], in [3], in test [4], in [5] and in test [6] was > 100 µM (inactive) throughout. Moreover, the GI50 in test [7], in test [8], in [9], in test [10], in test [11] and in [12] was > 100 µM (inactive) each time. The GI50 in [13], in test [14], in [15] and in test [16] was > 100 µM (inactive) throughout.
For `Cc1ccc(NC(=O)CCCC(=O)CC(=O)c2ccc(Br)cc2)cc1`, the GI50 in test [1] is > 100 µM (inactive); in test [2], > 100 µM (inactive); in test [3], > 100 µM (inactive); in [4], > 100 µM (inactive); in [5] it was 34.4 µM (inactive); in test [6] it was > 100 µM (inactive). The GI50 in [7], in test [8], in [9], in test [10], in test [11] and in test [12] was > 100 µM (inactive) throughout. Further, the GI50 in [13], in test [14], in test [15] and in test [16] was > 100 µM (inactive) in each case.
On to `O=C1/C(=C/c2ccc(Cl)cc2)COc2ccc(Br)cc21`, for which the GI50 was 50.5 µM (inactive) in test [1]; > 100 µM (inactive) in test [3]; > 100 µM (inactive) in test [4]; > 100 µM (inactive) in test [5]; > 100 µM (inactive) in test [6]; > 100 µM (inactive) in [7]. Moreover, the GI50 in [8], in [10], in test [11], in test [12], in [15] and in [16] was > 100 µM (inactive) in each case.
For `O=C1C=C(Nc2ccc(Cl)cc2Cl)c2ccccc2C1=O`, the GI50 was 38.3 µM (inactive) in [1]; 87.9 µM (inactive) in test [2]; 59.8 µM (inactive) in test [3]; 22.4 µM (inactive) in test [5]; 53.5 µM (inactive) in test [6]; > 100 µM (inactive) in test [7]. The GI50 was 35 µM (inactive) in test [8]; 28.5 µM (inactive) in test [9]; > 100 µM (inactive) in [10]; 88.1 µM (inactive) in test [11]; 78.5 µM (inactive) in [12]; 21.3 µM (inactive) in test [13]. Also, the GI50 is > 100 µM (inactive) in test [14], 21.2 µM (inactive) in [15] and > 100 µM (inactive) in test [16].
Consider `N#CCCN(c1ccc(/C=N/c2ccc(C(=O)O)cc2)cc1)S(=O)(=O)c1ccccc1`, for which the GI50 in [1], in [2], in test [3], in test [4], in test [5] and in test [6] was > 100 µM (inactive) throughout. The GI50 in test [7], in [8], in test [9], in [10], in test [11] and in test [12] was > 100 µM (inactive) each time. The GI50 in test [13], in [14], in test [15] and in [16] was > 100 µM (inactive) each time.
Consider `Cc1nnc2c3nnc(C)n3c3ccccc3n12`, for which the GI50 in test [1], in test [2], in test [3], in [4], in test [5] and in [6] was > 100 µM (inactive) each time. In addition, the GI50 in [7], in test [8], in test [9], in test [10], in test [11] and in [12] was > 100 µM (inactive) each time. Besides, the GI50 in [13], in test [14], in test [15] and in [16] was > 100 µM (inactive) throughout.
As for `CC(=O)C1=NN(c2ccccc2)C2(S1)SC(c1ccccc1)(c1ccccc1)c1ccccc12` (configuration not stated), the GI50 in test [1] was 13.2 µM (inactive); in test [2], 24.2 µM (inactive); in [3], > 100 µM (inactive); in test [4], 61.5 µM (inactive); in [5], 19.3 µM (inactive); in test [6], 26.9 µM (inactive). Moreover, the GI50 was 40.1 µM (inactive) in test [7]; 34.4 µM (inactive) in [8]; 16.1 µM (inactive) in test [9]; > 100 µM (inactive) in test [10]; 27.8 µM (inactive) in test [11]; 34.5 µM (inactive) in test [12]. Further, the GI50 is 44.8 µM (inactive) in test [13], 10.4 µM (inactive) in [15] and > 100 µM (inactive) in [16].
Consider `Clc1ccc(OCc2nnc3n2N=C(c2ccccc2)CS3)c(Cl)c1`, for which the GI50 in test [1] was 26.4 µM (inactive); in test [2] it was 50.9 µM (inactive); in test [3] it was > 100 µM (inactive); in test [4] it was 1.64 µM (inactive); in test [5] it was 3.02 µM (inactive); in [6], 4.35 µM (inactive). Also, the GI50 in test [7] is 8.73 µM (inactive); in test [8] it was 56.2 µM (inactive); in [9] it was 9.84 µM (inactive); in test [11], 3.23 µM (inactive); in test [12], 9.48 µM (inactive); in [13], > 10 µM (inactive). Also, the results for the GI50 in test [14] and in test [15] were 7.33 µM (inactive) and 4.21 µM (inactive), respectively.
With `CCCCCCCCCCCCCC(=O)NCO`, the GI50 in test [1], in [2], in [3], in test [4], in test [5] and in [6] was > 100 µM (inactive) in each case. Also, the GI50 in test [7], in test [8], in test [9], in test [10], in [12] and in [13] was > 100 µM (inactive) in each case. Further, the GI50 in [15] and in test [16] was > 100 µM (inactive) in each case.
As for `NC(=O)CCC(NC(=O)C(F)(F)F)C(=O)O` (configuration not stated), the GI50 in test [1], in test [2], in test [3], in test [4], in test [5] and in test [6] was > 100 µM (inactive) in each case. For the same compound, the GI50 in [7], in test [8], in test [9], in test [10], in test [11] and in test [12] was > 100 µM (inactive) in each case. Besides, the GI50 in [13], in test [14], in [15] and in test [16] was > 100 µM (inactive) throughout.
As for `CCOC(=O)COc1ccc(OCC(=O)OCC)c2c1C(=O)CCCC2=O`, the GI50 in [1], in test [3], in test [4], in [5], in test [6] and in test [7] was > 100 µM (inactive) each time. Moreover, the GI50 in [8], in test [9], in [10], in test [11], in test [12] and in test [13] was > 100 µM (inactive) in each case. The GI50 in test [15] and in [16] was > 100 µM (inactive) throughout.

By GI50 is commonly meant the concentration giving 50% growth inhibition.
